Tests used:
Assay type in all cases: cell-based
[1] = system: clinical strains of Acinetobacter baumannii; assay: MIC, clinical strains of Acinetobacter baumannii; details: microdilution, Muller Hinton broth-cation adjusted, 0.02% BSA, 0.2% acetic acid
Procedure, shortened: (§1)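 MIC = lowest peptide concentration showing no visual growth after 20–24 h at 37° C. Range 0.125–128 μg/ml; bacteria at 5.0×10^5 cfu/ml in MH broth, polypropylene microdilution format; yeasts in potato dextrose broth.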

[2] = system: clinical strains of Escherichia coli; assay: MIC, clinical strains of E. coli; design: unit: μg/ml; details: microdilution, Muller Hinton broth-cation adjusted, 0.02% BSA, 0.2% acetic acid
Procedure, shortened: as §1

[3] = system: Escherichia coli (ATCC 25922)
Experimental: (§2) Minimum inhibition concentrations (MICs) were determined against Escherichia coli (ATCC 25922), Staphylococcus aureus (ATCC 25923), Klebsiella pneumoniae (ATCC 10031) and Pseudomonas aeruginosa (ATCC 27853). Also clinical strains of E. coli, K. pneumoniae, E. cloacae, P. aeruginosa, Serratia marcescens, Proteus mirabilis, S. pneumoniae, Acinetobacter baumannii, A. johnsonii and S. aureus were used for MICs assays. Additionally, clinical strains of yeast including Candida albicans, C. glabrata, C. parapsilosis and C. quillermondiae were used. The susceptibility of these microorganisms to Chain peptides were determined using micro broth dilution assay. Colonies of the respective microorganism from Muller Hinton (MH) agar plates incubated overnight were suspended in MH broth media and final concentration of microorganism was adjusted to 5.0×10^5 cfu/ml. An aliquot of 10 μl of each Chain peptide, or gentamicin, tetracycline as reference antibiotics were added in differing concentrations along with 90 μl of bacterial suspension to 96 well polypropylene plates and incubated at 37° C. for 20 to 24 hours. Concentrations of Chain peptides and reference antibiotics ranged from 0.125 to 128 μg/ml and the MICs were recorded as the lowest concentration with no visual growth of bacteria. Similarly, antifungal MICs were tested in Potato dextrose broth.

[4] = system: Staphylococcus aureus (ATCC 25923)
Experimental: as §2

[5] = system: clinical strains of Acinetobacter johnsonii; details: Acinetobacter johnsonii clinical strain 1; microdilution, Muller Hinton broth-cation adjusted, 0.02% BSA, 0.2% acetic acid
Procedure, shortened: as §1

[6] = system: clinical strains of Staphylococcus aureus; assay: MIC, clinical strains of S. aureus; design: unit: μg/ml; details: microdilution, Muller Hinton broth-cation adjusted, 0.02% BSA, 0.2% acetic acid
Procedure, shortened: as §1

[7] = system: clinical strains of Enterobacter cloacae; assay: MIC, clinical strains of Enterobacter cloacae; design: unit: μg/ml; details: microdilution, Muller Hinton broth-cation adjusted, 0.02% BSA, 0.2% acetic acid
Procedure, shortened: as §1

[8] = system: clinical strains of Pseudomonas aeruginosa; assay: MIC, clinical strains of P. aeruginosa; design: unit: μg/ml; details: microdilution, Muller Hinton broth-cation adjusted, 0.02% BSA, 0.2% acetic acid
Procedure, shortened: as §1

[9] = system: clinical strains of Serratia marcescens; assay: MIC, clinical strains of Serratia marcescens; design: unit: µg/mL; details: microdilution, Muller Hinton broth-cation adjusted, 0.02% BSA, 0.2% acetic acid
Procedure, shortened: as §1

[10] = system: clinical strains of Klebsiella pneumoniae; assay: MIC, clinical strains of K. pneumoniae; design: unit: μg/ml; details: microdilution, Muller Hinton broth-cation adjusted, 0.02% BSA, 0.2% acetic acid
Procedure, shortened: as §1

[11] = system: clinical strains of Streptococcus pneumoniae; assay: MIC, clinical strains of Streptococcus pneumoniae; design: unit: µg/mL; details: microdilution, Muller Hinton broth-cation adjusted, 0.02% BSA, 0.2% acetic acid
Procedure, shortened: as §1

[12] = system: clinical strains of Proteus mirabilis; assay: MIC, clinical strains of Proteus mirabilis; design: unit: µg/mL; details: microdilution, Muller Hinton broth-cation adjusted, 0.02% BSA, 0.2% acetic acid
Procedure, shortened: as §1

Gentamicin [reference compound]
Minimum inhibitory concentration ([1]; Acinetobacter baumannii clinical strain 1): 0.5
Minimum inhibitory concentration ([1]; Acinetobacter baumannii clinical strain 2): 0.25
Minimum inhibitory concentration ([1]; Acinetobacter baumannii clinical strain 3): 0.5
Minimum inhibitory concentration ([1]; Acinetobacter baumannii clinical strain 4): 0.5
Minimum inhibitory concentration ([1]; Acinetobacter baumannii clinical strain 5): 0.25
Minimum inhibitory concentration ([2]; Escherichia coli clinical strain 1): 0.5
Minimum inhibitory concentration ([2]; Escherichia coli clinical strain 2): 0.5
Minimum inhibitory concentration ([2]; Escherichia coli clinical strain 3): 1
Minimum inhibitory concentration ([2]; Escherichia coli clinical strain 4): 1
Minimum inhibitory concentration ([2]; Escherichia coli clinical strain 5): 1
Minimum inhibitory concentration, Escherichia coli (ATCC 25922) [3]: 1 µg/mL
Minimum inhibitory concentration, Staphylococcus aureus (ATCC 25923) [4]: 0.25 µg/mL
Minimum inhibitory concentration [5]: 0.25
Minimum inhibitory concentration ([6]; Staphylococcus aureus clinical strain 1): 0.5
Minimum inhibitory concentration ([6]; Staphylococcus aureus clinical strain 2): 0.5
Minimum inhibitory concentration ([6]; Staphylococcus aureus clinical strain 3): 0.5
Minimum inhibitory concentration ([6]; Staphylococcus aureus clinical strain 4): 0.5
Minimum inhibitory concentration ([6]; Staphylococcus aureus clinical strain 5): 0.5
Minimum inhibitory concentration ([7]; Enterobacter cloacae clinical strain 1): 0.25
Minimum inhibitory concentration ([7]; Enterobacter cloacae clinical strain 2): 0.25
Minimum inhibitory concentration ([7]; Enterobacter cloacae clinical strain 3): 0.25
Minimum inhibitory concentration ([7]; Enterobacter cloacae clinical strain 4): 0.25
Minimum inhibitory concentration ([7]; Enterobacter cloacae clinical strain 5): 0.25
Minimum inhibitory concentration ([8]; Pseudomonas aeruginosa clinical strain 1): 1
Minimum inhibitory concentration ([8]; Pseudomonas aeruginosa clinical strain 2): 0.5
Minimum inhibitory concentration ([8]; Pseudomonas aeruginosa clinical strain 3): 0.5
Minimum inhibitory concentration ([8]; Pseudomonas aeruginosa clinical strain 4): 0.5
Minimum inhibitory concentration ([8]; Pseudomonas aeruginosa clinical strain 5): 0.25
Minimum inhibitory concentration ([9]; Serratia marcescens clinical strain 1): 1
Minimum inhibitory concentration ([9]; Serratia marcescens clinical strain 2): 2
Minimum inhibitory concentration ([9]; Serratia marcescens clinical strain 3): 1
Minimum inhibitory concentration ([9]; Serratia marcescens clinical strain 4): 1
Minimum inhibitory concentration ([9]; Serratia marcescens clinical strain 5): 1
Minimum inhibitory concentration ([10]; Klebsiella pneumoniae clinical strain 1): 2
Minimum inhibitory concentration ([10]; Klebsiella pneumoniae clinical strain 2): 0.25
Minimum inhibitory concentration ([10]; Klebsiella pneumoniae clinical strain 3): 2
Minimum inhibitory concentration ([10]; Klebsiella pneumoniae clinical strain 4): 2
Minimum inhibitory concentration ([10]; Klebsiella pneumoniae clinical strain 5): 4
Minimum inhibitory concentration ([11]; Streptococcus pneumoniae clinical strain 1): 2
Minimum inhibitory concentration ([11]; Streptococcus pneumoniae clinical strain 2): 2
Minimum inhibitory concentration ([11]; Streptococcus pneumoniae clinical strain 3): 2
Minimum inhibitory concentration ([11]; Streptococcus pneumoniae clinical strain 4): 2
Minimum inhibitory concentration ([11]; Streptococcus pneumoniae clinical strain 5): 1
Minimum inhibitory concentration ([12]; Proteus mirabilis clinical strain 1): 2
Minimum inhibitory concentration ([12]; Proteus mirabilis clinical strain 2): 2
Minimum inhibitory concentration ([12]; Proteus mirabilis clinical strain 3): >128
Minimum inhibitory concentration ([12]; Proteus mirabilis clinical strain 4): 8
Minimum inhibitory concentration ([12]; Proteus mirabilis clinical strain 5): >128
